Reference: patent US6534522B2, “Subtype-selective NMDA receptor ligands and the use thereof” (Warner-Lambert Company, priority 1995, dated 2003)

How the values were obtained:
[1] = biological target: NR1A/2A NMDA receptor (Rattus norvegicus, UniProt P35439+Q00959); experiment: Xenopus oocyte expression system, two-electrode voltage clamp, NR1A/2A; type: cell-based; conditions: cloned NR1A/2A subunits expressed in Xenopus oocytes; inhibition of agonist-evoked membrane current; read-out: 1A/2A IC50
Text: (§1) Electrophysiological assays may be utilized to characterize the actions of potential subtype-selective ligands at NMDA receptors expressed in Xenopus oocytes. The ligand may be assayed at the different subunit combinations of cloned rat NMDA receptors corresponding to the four putative NMDA receptor subtypes (Moriyoshi et al., Nature (Lond.) 354:31-37 (1991); Monyer et al., Science (Washington, D.C.) 256:1217-1221 (1992); Kutsuwada et al., Nature (Lond.) 358:36-41 (1992); Sugihara et al., Biochem. Biophys. Res. Comm. 185:826-832 (1992)).
(§2) Using fixed saturating concentrations of agonists (glutamate 100 μM, glycine 1-10 μM depending on subunit combination), the inhibitory potency of a putative subtype-selective ligand may be assayed at the NMDA receptors assembled from NR1A/2A, NR1A/2B, NR1A/2C and NR1A/2D subunit combinations.
(§3) The Xenopus oocyte expression system. Mature female Xenopus laevis were anaesthetized (20-40 min) using 0.15% 3-aminobenzoic acid ethyl ester (MS-222) and 2-4 ovarian lobes were surgically removed. Oocytes at developmental stages IV-VI (Dumont, J. N., J. Morphol. 136:153-180 (1972)), were dissected from the ovary still surrounded by enveloping ovarian tissues. Follicle-enclosed oocytes were micro-injected with 1:1 mixtures of cRNA:NR1A+NR2A, 2B, 2C or 2D; injecting ˜2, 5, or 20 ng of RNA encoding each receptor subunit. NR1A encoding cRNA was injected alone at ˜20 ng. Oocytes were stored in Barth's medium containing (in mM): NaCl, 88; KCl, 1; CaCl2, 0.41; Ca(NO3)2, 0.33; MgSO4, 0.82; NaHCO3, 2.4; HEPES 5; pH 7.4, with 0.1 mg/mL gentamycin sulphate. While oocytes were still surrounded by enveloping ovarian tissues the Barth's medium was supplemented with 0.1% bovine serum. Oocytes were defolliculated 1-2 days following injections by treatment with collagenase (0.5 mg/mL Sigma Type I for 0.5-1 hr) (Miledi and Woodward, J. Physiol. (Lond.) 416:601-621 (1989)) and subsequently stored in serum-free medium.
(§4) Electrical recordings were made using a conventional two-electrode voltage clamp (Dagan TEV-200) over periods ranging between 3-21 days following injection. Oocytes were placed in a 0.1 mL recording chamber continuously perfused (5-15 mL min^−1) with frog Ringer's solution containing (in mM): NaCl, 115; KCl, 2; CaCl2, 1.8; HEPES, 5; pH 7.4. Drugs were applied by bath perfusion. When using the more rapid flow rates, half-times for mid-chamber solution changes were between 2-3 sec, however, exchange rates for drug solutions at the oocyte surface (i.e. beneath the vitelline envelope and among the tangles of microvilli) were probably considerably longer (Woodward et al., Mol. Pharmacol. 41:89-103 (1992)). Zero-Ca^2+/Ba^2+ Ringer had the composition (in mM): NaCl, 115; KCl, 2; BaCl2, 1.8; HEPES, 5; pH 7.4. Intraoocyte injections were made by pneumatic pressure-pulse ejection from micropipettes (Miledi and Parker, J. Physiol. (Lond.) 357:173-183 (1984)). Injection solutions of EGTA (40-400 mM) and BAPTA (50-500 mM) were made up in H2O, pH adjusted to 7.4 with KOH or HCl, and filtered to minimize plugging (Acrodisc-13, […]). Pressure was set between 200-400 kPa. The volume of injections was regulated by adjusting the time of pulses (0.1-1 sec) and was estimated by measuring the diameters of ejected droplets.
(§5) Concentration-inhibition curves were fit with equation 2.
(§6) I/Icontrol=1/(1+([antagonist]/10^−pIC50)^n) Eq. 2
(§7) in which Icontrol is the current evoked by agonists alone, pIC50=−log IC50, […] is the concentration of antagonist that produces half maximal inhibition, and n is the slope factor. For incomplete curves analysis by fitting was unreliable and IC50 values were calculated by simple regression over linear portions of the curves (Origin: Microcal Software).
(§8) Drugs were initially dissolved at concentrations of 10-100 mM in DMSO. Dilutions were then made to generate a series of DMSO stock solutions over the range 10 μM to 100 mM. Working solutions were made by 1000-3000 fold dilution of stocks into Ringer. […]

[2] = biological target: NR1A/2B NMDA receptor (Rattus norvegicus, UniProt P35439+Q00960); experiment: Xenopus oocyte expression system, two-electrode voltage clamp, NR1A/2B; type: cell-based; conditions: cloned NR1A/2B subunits expressed in Xenopus oocytes; inhibition of agonist-evoked membrane current; read-out: 1A/2B IC50
Text: as §1, §2, §3, §4, §5, §6, §7, §8

[3] = biological target: NR1A/2C NMDA receptor (Rattus norvegicus, UniProt P35439+Q00961); experiment: Xenopus oocyte expression system, two-electrode voltage clamp, NR1A/2C; type: cell-based; conditions: cloned NR1A/2C subunits expressed in Xenopus oocytes; inhibition of agonist-evoked membrane current; read-out: 1A/2C IC50
Text: as §1, §2, §3, §4, §5, §6, §7, §8

Sequence of NR1A/2B NMDA receptor (Q00960 27-1482, other chains not shown): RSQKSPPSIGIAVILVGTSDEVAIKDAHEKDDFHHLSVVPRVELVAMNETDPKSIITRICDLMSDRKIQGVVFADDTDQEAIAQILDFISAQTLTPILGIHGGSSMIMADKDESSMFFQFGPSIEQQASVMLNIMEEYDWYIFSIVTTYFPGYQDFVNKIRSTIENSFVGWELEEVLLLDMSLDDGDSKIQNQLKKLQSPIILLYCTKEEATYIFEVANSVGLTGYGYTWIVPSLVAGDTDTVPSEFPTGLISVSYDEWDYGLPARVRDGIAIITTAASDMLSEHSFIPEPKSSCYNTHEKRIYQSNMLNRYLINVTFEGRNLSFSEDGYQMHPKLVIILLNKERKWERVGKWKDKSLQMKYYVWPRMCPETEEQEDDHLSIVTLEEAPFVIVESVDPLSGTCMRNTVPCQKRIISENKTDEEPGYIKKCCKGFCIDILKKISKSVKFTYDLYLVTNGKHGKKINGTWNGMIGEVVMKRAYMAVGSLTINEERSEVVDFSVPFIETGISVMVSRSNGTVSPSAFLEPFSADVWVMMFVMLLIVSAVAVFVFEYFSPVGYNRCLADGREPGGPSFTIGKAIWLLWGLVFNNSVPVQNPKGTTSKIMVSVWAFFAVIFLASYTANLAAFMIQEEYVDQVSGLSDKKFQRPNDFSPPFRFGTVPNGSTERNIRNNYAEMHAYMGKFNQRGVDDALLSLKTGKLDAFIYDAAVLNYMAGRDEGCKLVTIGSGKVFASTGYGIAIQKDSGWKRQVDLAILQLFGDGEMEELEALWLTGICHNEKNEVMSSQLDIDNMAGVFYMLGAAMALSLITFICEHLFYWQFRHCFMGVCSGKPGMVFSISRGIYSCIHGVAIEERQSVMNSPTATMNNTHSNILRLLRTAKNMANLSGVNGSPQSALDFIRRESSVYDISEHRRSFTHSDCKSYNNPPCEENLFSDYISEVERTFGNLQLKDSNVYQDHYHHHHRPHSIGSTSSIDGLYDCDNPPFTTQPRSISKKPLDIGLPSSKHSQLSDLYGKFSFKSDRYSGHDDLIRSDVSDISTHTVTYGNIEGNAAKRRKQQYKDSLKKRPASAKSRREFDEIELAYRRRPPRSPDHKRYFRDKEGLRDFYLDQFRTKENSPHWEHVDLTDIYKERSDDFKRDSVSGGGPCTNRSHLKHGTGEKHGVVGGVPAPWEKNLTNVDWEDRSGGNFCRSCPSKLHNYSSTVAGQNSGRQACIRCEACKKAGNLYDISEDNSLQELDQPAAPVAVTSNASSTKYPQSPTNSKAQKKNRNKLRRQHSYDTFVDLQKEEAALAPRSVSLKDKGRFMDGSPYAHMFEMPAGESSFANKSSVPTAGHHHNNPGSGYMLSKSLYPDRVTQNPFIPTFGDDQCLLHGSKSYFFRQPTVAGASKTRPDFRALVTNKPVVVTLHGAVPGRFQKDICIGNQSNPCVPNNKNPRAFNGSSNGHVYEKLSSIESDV
Sequence of NR1A/2C NMDA receptor (Q00961 20-1237, other chains not shown): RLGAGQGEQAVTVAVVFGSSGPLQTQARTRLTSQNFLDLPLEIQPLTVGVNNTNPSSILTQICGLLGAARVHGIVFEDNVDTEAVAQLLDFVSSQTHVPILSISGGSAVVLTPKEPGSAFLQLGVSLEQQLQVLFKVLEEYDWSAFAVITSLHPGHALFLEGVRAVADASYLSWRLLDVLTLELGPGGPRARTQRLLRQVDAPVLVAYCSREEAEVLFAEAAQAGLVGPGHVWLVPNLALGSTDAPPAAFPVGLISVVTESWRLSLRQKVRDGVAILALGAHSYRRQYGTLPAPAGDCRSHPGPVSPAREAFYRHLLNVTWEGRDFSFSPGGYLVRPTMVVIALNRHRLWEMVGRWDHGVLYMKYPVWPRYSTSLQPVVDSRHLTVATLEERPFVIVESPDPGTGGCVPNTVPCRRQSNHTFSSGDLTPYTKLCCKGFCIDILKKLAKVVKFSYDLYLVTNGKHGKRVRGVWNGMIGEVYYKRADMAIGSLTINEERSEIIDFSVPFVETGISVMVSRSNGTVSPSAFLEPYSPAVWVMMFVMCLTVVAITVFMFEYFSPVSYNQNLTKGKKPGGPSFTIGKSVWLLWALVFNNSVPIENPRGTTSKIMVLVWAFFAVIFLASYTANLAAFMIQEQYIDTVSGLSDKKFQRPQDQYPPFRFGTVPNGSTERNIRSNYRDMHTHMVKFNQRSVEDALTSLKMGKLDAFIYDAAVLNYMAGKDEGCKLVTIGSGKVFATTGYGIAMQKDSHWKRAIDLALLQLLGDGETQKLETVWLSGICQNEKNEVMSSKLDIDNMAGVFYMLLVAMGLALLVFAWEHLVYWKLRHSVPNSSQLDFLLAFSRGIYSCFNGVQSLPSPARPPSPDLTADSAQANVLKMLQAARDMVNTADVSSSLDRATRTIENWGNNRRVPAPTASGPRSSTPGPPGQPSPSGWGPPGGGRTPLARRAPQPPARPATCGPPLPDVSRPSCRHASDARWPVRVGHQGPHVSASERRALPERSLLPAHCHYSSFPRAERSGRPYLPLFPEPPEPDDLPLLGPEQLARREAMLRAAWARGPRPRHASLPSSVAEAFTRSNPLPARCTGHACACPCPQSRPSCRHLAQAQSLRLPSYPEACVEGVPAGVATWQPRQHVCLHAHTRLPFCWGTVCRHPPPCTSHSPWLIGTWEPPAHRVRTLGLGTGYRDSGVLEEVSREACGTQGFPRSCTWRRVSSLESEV
Sequence of NR1A/2A NMDA receptor (Q00959 20-1464 limits assumed, other chains not shown): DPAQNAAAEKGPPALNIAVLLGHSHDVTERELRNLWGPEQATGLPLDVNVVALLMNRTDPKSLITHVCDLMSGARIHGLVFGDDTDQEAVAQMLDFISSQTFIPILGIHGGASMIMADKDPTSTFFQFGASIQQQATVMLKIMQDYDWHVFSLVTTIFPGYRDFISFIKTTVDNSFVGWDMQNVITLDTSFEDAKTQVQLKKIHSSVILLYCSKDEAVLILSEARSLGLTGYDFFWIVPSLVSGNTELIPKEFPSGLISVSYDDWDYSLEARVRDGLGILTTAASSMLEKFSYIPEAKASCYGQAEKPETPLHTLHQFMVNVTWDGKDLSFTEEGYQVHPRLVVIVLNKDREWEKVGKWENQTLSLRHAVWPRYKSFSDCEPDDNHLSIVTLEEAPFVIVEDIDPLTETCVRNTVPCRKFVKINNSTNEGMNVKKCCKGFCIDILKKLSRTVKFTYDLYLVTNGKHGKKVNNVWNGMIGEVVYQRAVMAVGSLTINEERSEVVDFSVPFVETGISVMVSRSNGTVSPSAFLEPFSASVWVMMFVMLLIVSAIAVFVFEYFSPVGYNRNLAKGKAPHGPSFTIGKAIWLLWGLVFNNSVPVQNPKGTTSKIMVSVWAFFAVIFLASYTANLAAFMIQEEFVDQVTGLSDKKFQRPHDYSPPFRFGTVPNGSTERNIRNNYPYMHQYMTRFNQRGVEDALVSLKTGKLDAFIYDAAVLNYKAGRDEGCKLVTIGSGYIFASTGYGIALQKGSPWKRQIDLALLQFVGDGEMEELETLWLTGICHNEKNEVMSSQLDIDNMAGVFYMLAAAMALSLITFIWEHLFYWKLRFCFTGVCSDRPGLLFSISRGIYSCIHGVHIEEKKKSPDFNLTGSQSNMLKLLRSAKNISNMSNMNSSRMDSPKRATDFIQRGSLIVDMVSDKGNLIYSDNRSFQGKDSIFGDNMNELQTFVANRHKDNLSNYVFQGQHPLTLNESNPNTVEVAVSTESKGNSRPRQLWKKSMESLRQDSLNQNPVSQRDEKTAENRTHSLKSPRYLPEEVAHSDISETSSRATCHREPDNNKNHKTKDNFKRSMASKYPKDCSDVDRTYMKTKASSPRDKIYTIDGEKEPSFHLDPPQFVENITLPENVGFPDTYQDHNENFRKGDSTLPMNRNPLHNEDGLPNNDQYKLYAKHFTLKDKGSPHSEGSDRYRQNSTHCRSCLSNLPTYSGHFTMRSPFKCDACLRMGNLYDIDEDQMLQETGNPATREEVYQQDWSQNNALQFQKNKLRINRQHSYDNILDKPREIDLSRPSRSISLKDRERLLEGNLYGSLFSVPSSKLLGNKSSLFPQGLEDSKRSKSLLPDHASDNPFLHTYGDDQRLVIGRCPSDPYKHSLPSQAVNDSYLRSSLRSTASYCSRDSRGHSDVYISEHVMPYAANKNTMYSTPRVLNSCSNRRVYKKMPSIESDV

Row | Compound | melting point [°C] | IC50 [1] [µM] | IC50 [2] [µM] | IC50 [3] [µM]
1 | Br.c1ccc(CC2CCCN(CCOc3ccccc3)C2)cc1 (stereo not shown) | 93 to 94 | – | – | –
2 | Br.c1ccc(CCCCN2CCCC(Cc3ccccc3)C2)cc1 (stereo not shown) | 105 to 107 | – | – | –
3 | Br.c1ccc(CCN2CCCC(Cc3ccccc3)C2)cc1 (stereo not shown) | 137 to 142 | – | – | –
4 | Br.FC(F)(F)c1cccc(CCN2CCCC(Cc3ccccc3)C2)c1 (stereo not shown) | 152 to 154 | – | – | –
5 | Br.Clc1ccc(CCN2CCCC(Cc3ccccc3)C2)cc1 (stereo not shown) | 143 to 145 | – | – | –
6 | Br.COc1ccc(CCN2CCCC(Cc3ccccc3)C2)cc1 (stereo not shown) | 74 to 78 | – | – | –
7 | Cl.O=C(c1ccc(F)cc1)C1CCN(CCOc2ccc(F)cc2)CC1 | 138 to 141 | – | – | –
8 | 1-(2-Phenylethyl)-4-benzylidenepiperidine [Ex. 15] | – | 60 | 5.5 | 230
9 | CCCCCCN1CCC(Cc2ccccc2)CC1 [(A), 4-benzyl-1-hexylpiperidine] | – | > 300 | 5 | > 300
10 | CCCCN1CCC(Cc2ccccc2)CC1 [(B), 4-benzyl-1-butylpiperidine] | – | > 300 | 25 | > 300
11 | O=C(c1cccc(F)c1)C1CCN(CCCCc2ccccc2)CC1 [(C), 4-(3′-fluorobenzoyl)-1-(4″-phenylbutyl)piperidine] | – | > 300 | 10 | > 300
12 | NC(=O)CCCCN1CCC(Cc2ccccc2)CC1 [Ex. 2, 4-Benzylpiperidylpentamide] | – | > 300 | 1.6 | > 300
13 | NNC(=O)CCCCN1CCC(Cc2ccccc2)CC1 [Ex. 3, 4-Benzylpiperidylpentahydrazide] | – | > 300 | 4 | > 300
14 | C#CCCN1CCC(Cc2ccccc2)CC1 [Ex. 6, 4-benzyl-1-(3-Butynyl)piperidine] | – | > 300 | 2.3 | > 300
15 | C#CCCN1CCC(O)(c2ccc(Cl)cc2)CC1 [Ex. 7, 1-(3-Butynyl)-4-(p-chlorphenyl)-4-hydroxypiperidine] | – | > 300 | 65 | > 300
16 | Fc1cccc(C[P+](c2ccccc2)(c2ccccc2)c2ccccc2)c1 [Ex. 8, m-Fluorobenzyltriphenylphosphonium bromide] | – | > 300 | 65 | > 300
17 | Fc1cccc(C=C2CCN(Cc3ccccc3)CC2)c1 [Ex. 9, 1-Benzyl-4-(m-fluorobenzylidene)piperidine] | – | 240 | 14 | > 300
18 | O=C(CCCN1CCC(O)CC1)c1ccccc1 [Ex. 13, 4-(4-Hydroxypiperidinyl) butyrophenone] | – | 80 | 53 | 140
